{"source": "patent US8114895B2", "about": "“Use of bipyridine compound ‘Caerulomycin A’ derivatives and analogs thereof as immunosuppressive agents” (Council of Science and Industrial Research, priority 2005, dated 2012)", "key": {"CD4^+ T cells": {"system": "CD4^+ T cells", "test": "CD28, CTLA-4 and LFA-1 expression on T cells by flow cytometry", "type": "cell-based", "method": "CD28 and CTLA-4 expression was detected on the surface of the resting and ConA activated CD4^+ T cells by flow cytometric analysis. Briefly, the splenocytes (3×10^6 cells/well) were activated with OVA (200 μg/ml) or ConA (1 μg/ml and 2 μg/ml) and were incubated in the presence of different concentrations of Caerulomycin A (0.0125-0.45 μg/ml). The cultures were harvested after 24, 48, 72 and 96 h and cells were stained for the expression of CD4, CD28 and CTLA-4. Further, cultures were also set where Caerulomycin A was added after 24 h and 48 h of the initiation of cultures and the cells were stained after incubating further for 24 h. The cells were harvested and 3-color staining was done using PE (Phycoerythrin) conjugated anti-CD4 Ab, FITC (Fluorescein isothiocyanate) conjugated anti-CTLA-4, and Cy (Cy-chrome) conjugated CD28 Abs. The cells from each suspension were acquired on CELLQUEST software of FACScan (Becton Dickinson, Mountain View, Calif.). […] The analysis for the mean fluorescence intensity (MFI) was done on histograms where abcissa and ordinate denote log fluorescence and relative cell count, respectively.\nExamples establishing the role of Caerulomycin A [isolated from a novel species of Actinoalloteichus] in inducing immunosuppression based on the following: • Splenocytes of BALB/c mice were stimulated with either ConA (1 μg/ml and 2 μg/ml) or LPS (5 μg/ml and 10 μg/ml) and were cultured with different concentrations of Caerulomycin A (0.0003-0.1 μg/ml). […] Radioactivity incorporated was measured by liquid scintillation counting. • Antigen ovalbumin (100 μg/ml) emulsified in Freund's complete adjuvant was injected in a group consisting of 5 BALB/c mice. […] Radioactivity incorporated was measured by liquid scintillation. The culture supernatants were collected after 48 h and cytokines were measured by ELISA. • Immunosuppressive effect of different doses of Caerulomycin A was monitored on naïve CD4^+ T cells, antigen reactive CD4^+ T cells, Th2 clone and Th1 hybridoma. […]"}, "thymocytes": {"system": "thymocytes", "test": "Expression of CD69 on mouse thymocytes", "type": "cell-based, BALB/c mice", "settings": "ConA 1 and 5 μg/ml, 24 h", "method": "The expression of CD69 was detected on the surface of thymocytes in the presence of Caerulomycin A. Thymocytes were obtained from 3-4 weeks old BALB/c mice. Thymocytes (4×10^6 cells/well) were stimulated with 1 μg/ml and 5 μg/ml of ConA for 24 h in the presence and absence of Caerulomycin A at 37° C. The cells were stained with PE labeled anti-mouse CD69 Ab. The stained cells were acquired on a FACScan as mentioned in the case of CD28/CTLA-4."}, "[1]": {"settings": "CD4+ T cells, Caerulomycin A 0.0125-0.45 μg/ml"}}}
{"smiles": "COc1cc(/C=N/O)nc(-c2ccccn2)c1", "note": "[Caerulomycin A, (E)-4-methoxy-2,2′-bipyridine-6-carbaldehyde oxime]", "values": [{"measurement": "expression or percentage of LFA-1 positive cells", "setting": "CD4^+ T cells", "value": "did not exhibit any significant change"}, {"measurement": "expression and percentage of CD28", "setting": "CD4^+ T cells; [1]", "value": "decreased the expression and percentage"}, {"measurement": "expression and percentage of CTLA-4 positive cells", "setting": "CD4^+ T cells; [1]", "value": "significantly enhanced the expression but also the percentage"}, {"measurement": "expression of CD69", "setting": "thymocytes", "value": "no change in the expression"}]}
